The values that follow come from patent publication US9370510B2, “Small molecule compounds to treat hearing loss” (FATE THERAPEUTICS, INC., priority 2012, dated 2016).

Type in all cases: cell-based, rat
For assay [1], the system named is hair cell-damaged cochlea/modiolus explants. Kind of assay: proliferating supporting cells (BrdU+/Sox2+) in hair cell-damaged cochlea/modiolus explants, confocal microscopy. The conditions noted are these: three days, after 1 mM tobramycin for three days. The method, then:
Postnatal day 5 rat cochlea cochlea/modiolus explants were collected and cultured with 1 mM tobramycin for three days to kill hair cells. Cultures were then treated for three days with DMSO, 3 uM bromo benzyl ellipticinium, 60 uM CHIR99021, or both. Tissues were fixed with 4% paraformaldehyde, and cochlea were removed from surrounding tissue and immunostained with anti-SOX2 and anti-BrdU antibodies. Whole mount confocal microscopy was used to identify proliferating supporting cells (Brdu+/Sox2+) counted in 300 um of the basal-most cochlea. Cochlea were analyzed in triplicates per treatment group.

Assay [2] concerns hair cell-damaged cochlear explants. In words: cell proliferation (phosphorylated Histone H3) in hair cell-damaged cochlear explants by western blot. As to conditions: 3 uM, 24 hours, after 1 mM tobramycin for two days, vs vehicle (DMSO) (FIG. 4). The method, then:
(§1) Postnatal day 5 rat cochlea were collected and cultured with 1 mM tobramycin for two days to kill hair cells. Cultures were then treated with 3 uM bromo benzyl ellipticinium dissolved in DMSO or DMSO alone (negative control) for 24 hours.
(§2) Cochlear explant extracts were analyzed by western blotting. Detergent-solubilized extracts were electrophoresed on a polyacrylamide gel, and the separated denatured proteins transferred to a PVDF membrane. Antibodies to p27, p57, phosphorylated Histone H3, phosphorylated p130 and the house-keeping gene, β-actin were used with infrared dye-conjugated secondary antibodies and quantified by fluorescence. Levels of p27, p57, phosphorylated Histone H3, and phosphorylated p130 were normalized to the beta-actin signal before comparing treated and control samples.

The next assay deals with p27. Kind of assay: p27 protein levels in hair cell-damaged (tobramycin) cochlear explants by western blot. As to conditions: 3 uM, 24 hours, after 1 mM tobramycin for two days, vs vehicle (DMSO) (FIG. 4). The method, then:
as §1, §2

For the compound `Cc1c[nH]c(-c2cnc(NCCNc3ccc(C#N)cn3)nc2-c2ccc(Cl)cc2Cl)n1` [CHIR99021, reference compound], the “BrdU+/Sox2+ ells/300 μm of Basal Cochlea (Mean ± SD, n = 3)” value in assay [1] (60 μM) is listed as 0 ± 0 ells/300 μm.
Take `Cc1c2cc[n+](Cc3ccccc3)cc2c(C)c2c1[nH]c1ccccc12` [bromo benzyl ellipticinium, Bromo Benzyl Ellipticinium]: the “BrdU+/Sox2+ ells/300 μm of Basal Cochlea (Mean ± SD, n = 3)” value in assay [1] (3 μM) came to 0 ± 0 ells/300 μm. Besides, the cell proliferation entry in assay [2] is “increased”. Moreover, in the assay with p27, the p27 protein levels result was “reduced”.
